Results as given in patent US11390812B2, “Compound, composition, cured object, optically anisotropic body, and reflective film” (FUJIFILM Corporation, priority 2018, dated 2022).

Experiments:
Type in all cases: physicochemical
[1] = Measurement of solution absorption spectrum (colorability evaluation); settings: chloroform solution, 1 cm cell; for λmax: wavelength of maximum light absorption coefficient in the region of 300 nm or more; for λ (1000): wavelength showing light absorption coefficient ε of 1000 in the region of 300 nm or more
Procedure: <Measurement of Solution Absorption Spectrum (Colorability Evaluation)>
A solution absorption spectrum of each of the compounds was measured using a spectrophotometer UV-3100PC manufactured by Shimadzu Corporation. Using chloroform as a solvent, a solution in which a predetermined amount of the compound was dissolved was measured in a 1 cm cell, and λmax and λ (1000) were calculated from the obtained spectrum and molecular weight. λmax represents a wavelength showing the maximum light absorption coefficient in the region of 300 nm or more, and λ (1000) represents a wavelength showing a light absorption coefficient ε of 1000 in the region of 300 nm or more. It can be evaluated that as wavelengths of λmax and λ (1000) became smaller (as wavelengths became shorter), colorability of the compound was more inhibited.
For example, λmax is preferably 310 nm or less. In addition, λ (1000) is preferably 350 nm or less and more preferably 325 nm or less.

[2] = Light fastness test of optically anisotropic film; settings: film of compound 50 parts with B-2 50 parts; xenon, 5 million lx·h for 50 hours, 63° C., 50% RH, oxygen-blocking; transmittance change at 420 nm
Procedure: <Light Fastness Evaluation>
(Production of Optically Anisotropic Film)
A coating liquid having the following composition was prepared and applied to a rubbing-treated glass equipped with an alignment film by spin-coating. Each composition was irradiated with ultraviolet rays of 500 mJ/cm^2 through a filter that cuts light having a wavelength of 350 nm or less on a hot plate heated to a temperature until showing a nematic phase, and thereby an optically anisotropic film was produced.
The produced optically anisotropic film was irradiated with light using a Super Xenon Weather Meter SX75 manufactured by Suga Test Instruments Co., Ltd. Using KU-1000100 manufactured by King Seisakusho Co., Ltd. as a UV cut filter, a light fastness test was conducted by irradiation of 5 million l×h of light for 50 hours under an oxygen-blocking condition. A temperature of the test subject (a temperature inside the test device) was set to 63° C. A relative humidity in the test device was 50% RH.
A transmittance change of the optically anisotropic film before and after the light fastness test was measured. Light fastness in a case where a transmittance change at 420 nm was less than 5% was evaluated as A, and light fastness in a case where a transmittance change at 420 nm was 5% or more was evaluated as B. As a transmittance change became small, light fastness was more excellent.

[3] = Solubility evaluation in methyl ethyl ketone; settings: room temperature (23° C.), precipitation concentration
Procedure: Solubility of each of the compounds in methyl ethyl ketone was evaluated. A solution in which the compound was ultrasonically dissolved or dissolved by heating was produced. […] Solutions were produced at various concentrations for each of the compounds, and solubility of the compound was evaluated according to the following criteria, using a concentration at which the compound was precipitated as a precipitation concentration. As a precipitation concentration became higher, solubility of the compound was more excellent.
A: a precipitation concentration was 20% by mass or more
B: a precipitation concentration was 10% by mass or more and less than 20% by mass
C: a precipitation concentration was less than 10% by mass

[4] = Measurement of Δn (refractive index anisotropy), wedge-shaped liquid crystal cell; settings: at 550 nm and 30° C.; for compounds liable to crystallize estimated from extrapolated values of mixtures with other liquid crystals
Excerpt: As a method of measuring the Δn, a method using a wedge-shaped liquid crystal cell described on page 202 of the Liquid Crystal Handbook (edited by Liquid Crystal Handbook Editing Committee, published by Maruzen Co., Ltd.) is generally used. In a case of a compound which is liable to crystallize, it is also possible to carry out evaluation with a mixture thereof with other liquid crystals and to estimate Δn from extrapolated values thereof.
The Δn corresponds to a measurement value at a wavelength of 550 nm at 30° C.
<Measurement of Δn (Refractive Index Anisotropy)>
Δn of each of the compounds was measured by a method using a wedge-shaped liquid crystal cell described on page 202 of the Liquid Crystal Handbook (edited by Liquid Crystal Handbook Editing Committee, published by Maruzen Co., Ltd.). In a case of the compound which is liable to crystallize, evaluation with a mixture thereof with other liquid crystals was carried out and Δn was estimated from extrapolated values thereof. The values in the table represent Δn's at 550 nm and 30° C.
Δn in Comparative Example 1 is a measurement value in a nematic phase.

Row | λmax [1] [nm] | λ (1000) [1] [nm] | Δn [4] | SMILES | Light fastness [2] | Solubility [3]
1 | 309 | 320 | 0.30 | C=CC(=O)OCCc1ccc(C#Cc2ccc(CCc3ccc(C#Cc4ccc(CCOC(=O)C=C)cc4)cc3)cc2)cc1 [Compound A-1] | A (a transmittance change at 420 nm was less than 5%) | C (a precipitation concentration was less than 10% by mass)
2 | 309 | 327 | 0.34 | C=CC(=O)OCCc1ccc(C#Cc2ccc(COc3ccc(C#Cc4ccc(CCOC(=O)C=C)cc4)cc3)cc2)cc1 [Compound A-2] | A (a transmittance change at 420 nm was less than 5%) | C (a precipitation concentration was less than 10% by mass)
3 | 308 | 327 | 0.34 | C=CC(=O)OCCc1ccc(C#Cc2ccc(COc3ccc(C#Cc4ccc(CCOC(=O)C=C)cc4)cc3C)cc2)cc1 [Compound A-3] | A (a transmittance change at 420 nm was less than 5%) | B (a precipitation concentration was 10% by mass or more and less than 20% by mass)
4 | 309 | 325 | 0.36 | C=CC(=O)OCCc1ccc(C#Cc2ccc(COc3ccc(C#Cc4ccc(CCOC(=O)C=C)cc4)cc3C(F)(F)F)cc2)cc1 [Compound A-4] | A (a transmittance change at 420 nm was less than 5%) | A (a precipitation concentration was 20% by mass or more)
5 | 308 | 329 | 0.33 | C=CC(=O)OCCc1ccc(C#Cc2ccc(COc3ccc(C#Cc4ccc(CCOC(=O)C=C)cc4)cc3C(C)(C)C)cc2)cc1 [Compound A-5] | A (a transmittance change at 420 nm was less than 5%) | A (a precipitation concentration was 20% by mass or more)
6 | 308 | 343 | 0.37 | C=CC(=O)OCCc1ccc(C#Cc2ccc(COc3ccc(C#Cc4ccc(CCOC(=O)C=C)cc4)cc3C(=O)OC)cc2)cc1 [Compound A-6] | A (a transmittance change at 420 nm was less than 5%) | A (a precipitation concentration was 20% by mass or more)
7 | 309 | 339 | 0.33 | C=CC(=O)OCCc1ccc(C#Cc2ccc(COc3ccc(C#Cc4ccc(CCOC(=O)C=C)cc4)cc3C(=O)OC(C)(C)C)cc2)cc1 [Compound A-7] | A (a transmittance change at 420 nm was less than 5%) | A (a precipitation concentration was 20% by mass or more)
8 | 315 | 364 | 0.25 | CC(=O)OCCCCCCCCCCOc1ccc(C#Cc2ccc(OC(=O)c3ccc(C#Cc4ccc(OCCCCCCCCCCOC(C)=O)c(F)c4)cc3)cc2)cc1F [Compound B-1, reference compound] | B (a transmittance change at 420 nm was 5% or more) | C (a precipitation concentration was less than 10% by mass)
